Source: patent US11203601B2, “Tricyclic compounds as glycogen synthase kinase 3 (GSK3) inhibitors and uses thereof” (The Broad Institute, Inc., priority 2017, dated 2021)

Legend:
Assay in all cases: Carna kinome panel
Format in all cases: biochemical
Conditions in all cases: read-out: % Inhibition at 10 μM of the test compound
EPHA8 = EPHA8 (Homo sapiens (Human), UniProt P29322)
ACK = ACK (Homo sapiens (Human), UniProt Q07912)
PKR = PKR (Homo sapiens (Human), UniProt P19525)
FAK = FAK (Homo sapiens (Human), UniProt Q05397)
IGF1R = IGF1R (Homo sapiens (Human), UniProt P08069)
PKN1 = PKN1 (Homo sapiens (Human), UniProt Q16512)
AMPKα1/β1/γ1 = AMPKα1/β1/γ1 (Homo sapiens (Human), UniProt Q13131)
AurB = AurB (Homo sapiens (Human), UniProt Q96GD4)
PKCδ = PKCδ (Homo sapiens (Human), UniProt Q05655)
TSSK1 = TSSK1 (Homo sapiens (Human), UniProt Q9BXA7)
TNIK = TNIK (Homo sapiens (Human), UniProt Q9UKE5)
ABL(T315I) = ABL(T315I) (Homo sapiens (Human), UniProt P00519, T315I)
YES = YES (Homo sapiens (Human), UniProt P07947)
ALK(C1156Y) = ALK(C1156Y) (Homo sapiens (Human), UniProt Q9UM73, C1156Y)
FGR = FGR (Homo sapiens (Human), UniProt P09769)
LATS2 = LATS2 (Homo sapiens (Human), UniProt Q9NRM7)
SGK3 = SGK3 (Homo sapiens (Human), UniProt Q96BR1)
MET(D1228H) = MET(D1228H) (Homo sapiens (Human), UniProt P08581, D1228H)
ALK(R1275Q) = ALK(R1275Q) (Homo sapiens (Human), UniProt Q9UM73, R1275Q)
CK1γ1 = CK1γ1 (Homo sapiens (Human), UniProt Q9HCP0)
PKCε = PKCε (Homo sapiens (Human), UniProt Q02156)
ARG = ARG (Homo sapiens (Human), UniProt P42684)
FGFR4 = FGFR4 (Homo sapiens (Human), UniProt P22455)
FGFR3(K650E) = FGFR3(K650E) (Homo sapiens (Human), UniProt P22607, K650E)
PYK2 = PYK2 (Homo sapiens (Human), UniProt Q14289)
TNK1 = TNK1 (Homo sapiens (Human), UniProt Q13470)
EPHA6 = EPHA6 (Homo sapiens (Human), UniProt Q9UF33)
Experimental: Briefly, a selection of compounds was screened against a panel of kinases at a single concentration of 10 μM. […] This was completed using one of two assays, depending on the kinase being examined: 1) IMAP Assay. A solution of 4× inhibitor, 4× substrate/ATP/metal solution and 2× kinase solution was prepared with assay buffer (20 mM HEPES, 0.01% Tween-20, 2 mM DTT, pH 7.4) and mixed, then incubated in 384-well black plates for 1 hour at room temperature. The IMAP binding reagent (IMAP Screening Express kit; Molecular Devices) was added to each well and incubated for 30 minutes. […] 2) Off-Chip Mobility Shift Assay (MSA). A solution of 4× inhibitor, 4× substrate/ATP/metal solution and 2× kinase solution was prepared with assay buffer (20 mM HEPES, 0.01% Triton X-100, 2 mM DTT, pH 7.5) and mixed, then incubated in 384-well plates for 1 or 5 hours depending on the kinase, at room temperature. Termination buffer (QuickScout Screening assist MSA; Carna Biosciences) was added to each well. The entire reaction mixture was then applied to a LabChip3000 system (Caliper Life Science), and the product and substrate peptide peaks were separated and quantified. […] The entire reaction mixture was then applied to a LabChip3000 system (Caliper Life Science), and the product and substrate peptide peaks were separated and quantified.

PDK1 = PDK1 (Homo sapiens (Human), UniProt O15530)
NEK7 = NEK7 (Homo sapiens (Human), UniProt Q8TDX7)
AXL = AXL (Homo sapiens (Human), UniProt P30530)
TEC = TEC (Homo sapiens (Human), UniProt P42680)
BRSK1 = BRSK1 (Homo sapiens (Human), UniProt Q8TDC3)

Chain of PKCε (Q02156 whole entry): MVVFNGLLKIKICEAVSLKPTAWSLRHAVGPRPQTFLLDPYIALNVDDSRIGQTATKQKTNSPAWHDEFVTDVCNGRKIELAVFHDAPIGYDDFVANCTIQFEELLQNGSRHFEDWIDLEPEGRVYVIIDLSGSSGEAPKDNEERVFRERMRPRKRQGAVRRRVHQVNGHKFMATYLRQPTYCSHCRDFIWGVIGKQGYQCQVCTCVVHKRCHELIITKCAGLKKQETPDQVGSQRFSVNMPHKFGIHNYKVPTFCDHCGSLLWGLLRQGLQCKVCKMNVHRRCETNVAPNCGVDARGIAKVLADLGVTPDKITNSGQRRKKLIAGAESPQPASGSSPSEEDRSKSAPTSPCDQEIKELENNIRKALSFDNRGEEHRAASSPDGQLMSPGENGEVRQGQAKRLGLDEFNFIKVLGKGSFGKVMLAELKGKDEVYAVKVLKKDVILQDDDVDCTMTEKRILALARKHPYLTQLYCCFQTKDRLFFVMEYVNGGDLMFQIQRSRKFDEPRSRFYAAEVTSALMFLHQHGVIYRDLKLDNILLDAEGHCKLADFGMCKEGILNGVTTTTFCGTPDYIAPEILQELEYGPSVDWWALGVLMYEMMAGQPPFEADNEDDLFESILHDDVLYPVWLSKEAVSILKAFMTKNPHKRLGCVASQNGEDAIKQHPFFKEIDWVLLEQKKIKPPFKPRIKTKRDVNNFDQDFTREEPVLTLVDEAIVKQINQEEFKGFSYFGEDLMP
Chain of FGR (P09769 whole entry): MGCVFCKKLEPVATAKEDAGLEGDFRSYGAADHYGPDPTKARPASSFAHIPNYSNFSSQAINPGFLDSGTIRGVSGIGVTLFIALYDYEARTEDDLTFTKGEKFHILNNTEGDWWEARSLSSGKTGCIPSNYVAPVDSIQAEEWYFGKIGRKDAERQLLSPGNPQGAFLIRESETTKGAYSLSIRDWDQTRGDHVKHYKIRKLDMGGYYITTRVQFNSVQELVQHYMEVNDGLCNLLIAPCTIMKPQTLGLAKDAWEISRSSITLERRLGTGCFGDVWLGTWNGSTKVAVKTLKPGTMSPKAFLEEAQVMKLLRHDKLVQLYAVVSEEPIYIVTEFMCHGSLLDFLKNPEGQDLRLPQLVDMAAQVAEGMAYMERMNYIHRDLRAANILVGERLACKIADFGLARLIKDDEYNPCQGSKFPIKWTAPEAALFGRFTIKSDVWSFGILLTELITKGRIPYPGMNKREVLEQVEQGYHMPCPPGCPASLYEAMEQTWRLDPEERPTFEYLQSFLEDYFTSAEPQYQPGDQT
Chain of FGFR4 (P22455 22-802): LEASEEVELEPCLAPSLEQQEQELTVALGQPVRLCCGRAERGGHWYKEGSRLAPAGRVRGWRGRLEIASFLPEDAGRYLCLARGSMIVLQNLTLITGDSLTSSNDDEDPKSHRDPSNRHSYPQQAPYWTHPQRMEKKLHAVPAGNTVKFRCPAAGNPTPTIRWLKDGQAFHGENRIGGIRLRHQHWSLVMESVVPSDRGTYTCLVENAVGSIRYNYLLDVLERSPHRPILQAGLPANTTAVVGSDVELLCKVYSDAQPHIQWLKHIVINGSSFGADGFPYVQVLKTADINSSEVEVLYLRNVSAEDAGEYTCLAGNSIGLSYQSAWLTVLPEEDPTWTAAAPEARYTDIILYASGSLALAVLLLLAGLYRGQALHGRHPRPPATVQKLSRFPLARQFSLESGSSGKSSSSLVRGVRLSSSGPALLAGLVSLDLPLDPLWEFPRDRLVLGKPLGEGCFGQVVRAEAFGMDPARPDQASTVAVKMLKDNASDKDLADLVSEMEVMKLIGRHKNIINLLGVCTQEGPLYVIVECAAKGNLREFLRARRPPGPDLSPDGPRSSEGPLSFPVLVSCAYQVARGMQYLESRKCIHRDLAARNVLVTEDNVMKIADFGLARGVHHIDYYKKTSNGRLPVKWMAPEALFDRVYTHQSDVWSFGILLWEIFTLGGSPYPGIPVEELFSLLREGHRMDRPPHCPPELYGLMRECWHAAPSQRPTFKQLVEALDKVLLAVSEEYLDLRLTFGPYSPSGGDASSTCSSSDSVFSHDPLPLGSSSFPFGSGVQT
Chain of PKR (P19525 whole entry): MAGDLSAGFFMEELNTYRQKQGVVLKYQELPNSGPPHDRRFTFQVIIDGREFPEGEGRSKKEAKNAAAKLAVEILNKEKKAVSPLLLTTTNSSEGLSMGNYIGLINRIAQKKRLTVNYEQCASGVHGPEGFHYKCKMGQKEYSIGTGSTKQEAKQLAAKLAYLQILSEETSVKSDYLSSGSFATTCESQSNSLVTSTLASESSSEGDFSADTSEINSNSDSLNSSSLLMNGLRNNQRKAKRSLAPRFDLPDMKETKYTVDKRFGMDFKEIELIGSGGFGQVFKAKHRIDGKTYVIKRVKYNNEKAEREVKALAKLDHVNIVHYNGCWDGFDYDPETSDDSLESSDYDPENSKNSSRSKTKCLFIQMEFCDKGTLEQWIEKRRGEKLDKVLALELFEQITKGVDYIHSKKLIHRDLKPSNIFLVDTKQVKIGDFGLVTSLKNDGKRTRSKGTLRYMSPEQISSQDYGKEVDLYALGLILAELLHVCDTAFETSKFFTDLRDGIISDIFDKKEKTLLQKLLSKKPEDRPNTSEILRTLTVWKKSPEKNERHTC
Chain of FAK (Q05397 whole entry): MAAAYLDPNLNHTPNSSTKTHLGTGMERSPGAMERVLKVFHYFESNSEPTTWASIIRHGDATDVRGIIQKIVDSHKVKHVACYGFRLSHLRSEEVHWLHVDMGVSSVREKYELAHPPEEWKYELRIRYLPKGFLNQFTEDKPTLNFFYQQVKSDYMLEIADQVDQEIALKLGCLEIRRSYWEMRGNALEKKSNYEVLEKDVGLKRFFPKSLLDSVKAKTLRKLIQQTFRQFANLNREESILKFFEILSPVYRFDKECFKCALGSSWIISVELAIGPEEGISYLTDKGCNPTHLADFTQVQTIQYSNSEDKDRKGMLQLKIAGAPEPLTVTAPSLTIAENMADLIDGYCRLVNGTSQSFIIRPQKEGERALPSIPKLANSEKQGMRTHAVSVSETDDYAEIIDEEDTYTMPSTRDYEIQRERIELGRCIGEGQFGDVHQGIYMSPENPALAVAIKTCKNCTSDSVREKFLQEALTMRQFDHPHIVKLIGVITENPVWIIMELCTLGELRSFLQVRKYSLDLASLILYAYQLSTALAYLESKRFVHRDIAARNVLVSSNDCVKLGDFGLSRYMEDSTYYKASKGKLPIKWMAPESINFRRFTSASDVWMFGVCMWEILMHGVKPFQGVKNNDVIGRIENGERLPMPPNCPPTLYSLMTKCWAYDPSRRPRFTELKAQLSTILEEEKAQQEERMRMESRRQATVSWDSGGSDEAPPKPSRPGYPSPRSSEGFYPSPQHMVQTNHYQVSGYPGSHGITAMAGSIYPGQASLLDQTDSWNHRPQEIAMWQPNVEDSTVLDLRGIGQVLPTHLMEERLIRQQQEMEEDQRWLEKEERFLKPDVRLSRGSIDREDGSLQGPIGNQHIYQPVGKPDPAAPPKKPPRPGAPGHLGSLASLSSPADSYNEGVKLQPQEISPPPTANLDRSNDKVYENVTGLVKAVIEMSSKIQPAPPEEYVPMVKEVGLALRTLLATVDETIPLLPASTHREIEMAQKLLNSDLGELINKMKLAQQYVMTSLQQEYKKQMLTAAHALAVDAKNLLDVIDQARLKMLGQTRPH
Chain of YES (P07947 whole entry): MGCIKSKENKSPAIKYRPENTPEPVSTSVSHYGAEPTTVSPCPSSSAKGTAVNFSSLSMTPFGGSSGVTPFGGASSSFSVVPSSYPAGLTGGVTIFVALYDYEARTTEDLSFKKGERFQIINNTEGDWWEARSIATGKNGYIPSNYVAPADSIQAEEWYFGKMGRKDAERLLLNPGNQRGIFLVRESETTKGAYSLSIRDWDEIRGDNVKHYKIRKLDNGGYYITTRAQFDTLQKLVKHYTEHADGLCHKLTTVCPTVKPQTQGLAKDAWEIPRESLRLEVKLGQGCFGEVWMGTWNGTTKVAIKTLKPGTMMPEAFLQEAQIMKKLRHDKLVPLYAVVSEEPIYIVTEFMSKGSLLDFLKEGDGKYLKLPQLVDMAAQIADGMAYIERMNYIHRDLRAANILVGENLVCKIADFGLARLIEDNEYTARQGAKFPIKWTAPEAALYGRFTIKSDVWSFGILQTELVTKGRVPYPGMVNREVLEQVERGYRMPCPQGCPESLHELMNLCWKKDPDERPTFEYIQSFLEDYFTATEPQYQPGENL
Chain of TSSK1 (Q9BXA7 whole entry): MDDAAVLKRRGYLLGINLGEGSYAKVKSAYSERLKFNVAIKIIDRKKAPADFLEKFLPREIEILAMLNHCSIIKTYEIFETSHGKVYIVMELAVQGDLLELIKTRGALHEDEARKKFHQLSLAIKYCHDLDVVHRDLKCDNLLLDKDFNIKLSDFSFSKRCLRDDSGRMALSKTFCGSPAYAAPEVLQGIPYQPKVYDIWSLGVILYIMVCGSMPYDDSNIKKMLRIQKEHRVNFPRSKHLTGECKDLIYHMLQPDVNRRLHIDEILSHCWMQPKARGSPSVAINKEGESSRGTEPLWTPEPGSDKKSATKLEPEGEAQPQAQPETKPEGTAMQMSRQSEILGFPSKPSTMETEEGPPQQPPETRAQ
Chain of AurB (Q96GD4 whole entry): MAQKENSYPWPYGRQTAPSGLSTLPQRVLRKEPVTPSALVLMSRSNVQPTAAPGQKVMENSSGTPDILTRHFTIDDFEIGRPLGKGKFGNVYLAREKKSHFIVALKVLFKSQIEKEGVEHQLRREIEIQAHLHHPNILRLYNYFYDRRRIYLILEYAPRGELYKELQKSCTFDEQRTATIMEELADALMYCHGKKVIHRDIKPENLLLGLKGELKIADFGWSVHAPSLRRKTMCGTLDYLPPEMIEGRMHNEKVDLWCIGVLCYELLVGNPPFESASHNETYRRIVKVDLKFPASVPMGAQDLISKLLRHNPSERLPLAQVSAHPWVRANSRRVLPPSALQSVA

## CCC1(c2ccccc2)C2=C(CC(C)(C)CC2=O)Nc2ncsc21 (centres unmarked) [Compound 1, 9-Ethyl-6,6-dimethyl-9-phenyl-5,6,7,9-tetrahydrothiazolo[4,5-b]quinolin-8(4H)-one]
EPHA8
  inhibition at 10 µM: 3%
ACK
  inhibition at 10 µM: -4.1%
PKR
  inhibition at 10 µM: -8.9%
FAK
  inhibition at 10 µM: -2%
IGF1R
  inhibition at 10 µM: 2%
PKN1
  inhibition at 10 µM: 8.9%
AMPKα1/β1/γ1
  inhibition at 10 µM: 7.6%
AurB
  inhibition at 10 µM: -0.4%
PKCδ
  inhibition at 10 µM: 2.4%
TSSK1
  inhibition at 10 µM: -5%
TNIK
  inhibition at 10 µM: 8.6%
ABL(T315I)
  inhibition at 10 µM: 0.4%
YES
  inhibition at 10 µM: 3.3%
ALK(C1156Y)
  inhibition at 10 µM: -3.7%
FGR
  inhibition at 10 µM: 10.6%
LATS2
  inhibition at 10 µM: 5.4%
SGK3
  inhibition at 10 µM: -2.3%
MET(D1228H)
  inhibition at 10 µM: -7.7%
ALK(R1275Q)
  inhibition at 10 µM: -8%
CK1γ1
  inhibition at 10 µM: 1.2%
PKCε
  inhibition at 10 µM: -0.7%
ARG
  inhibition at 10 µM: -0.6%
FGFR4
  inhibition at 10 µM: 2.8%
FGFR3(K650E)
  inhibition at 10 µM: -3%
PYK2
  inhibition at 10 µM: -3.1%
TNK1
  inhibition at 10 µM: 11.7%
EPHA6
  inhibition at 10 µM: 21.3%
PDK1
  inhibition at 10 µM: -4%
NEK7
  inhibition at 10 µM: -3.9%
AXL
  inhibition at 10 µM: 6.5%
TEC
  inhibition at 10 µM: -9.1%
BRSK1
  inhibition at 10 µM: -12.9%
